Data: ChEMBL document CHEMBL4610002, “Selenium bioisosteric replacement of adenosine derivatives promoting adiponectin secretion increases the binding affinity to peroxisome proliferator-activated receptor δ” (Bioorg Med Chem, 2020)
pEC50: −log10 of the molar value. Active and inactive are the calls of the source. The calls are words filed in the database; no cut-off is given here.

Columns and labels:
[1] = molecular target: T1, Peroxisome proliferator-activated receptor alpha (Homo sapiens) (UniProt Q07869); assay: Binding affinity to GST-tagged human PPARalpha LBD up to 30 uM incubated for 2 to 6 hrs by TR-FRET assay
T1 sequence (whole entry): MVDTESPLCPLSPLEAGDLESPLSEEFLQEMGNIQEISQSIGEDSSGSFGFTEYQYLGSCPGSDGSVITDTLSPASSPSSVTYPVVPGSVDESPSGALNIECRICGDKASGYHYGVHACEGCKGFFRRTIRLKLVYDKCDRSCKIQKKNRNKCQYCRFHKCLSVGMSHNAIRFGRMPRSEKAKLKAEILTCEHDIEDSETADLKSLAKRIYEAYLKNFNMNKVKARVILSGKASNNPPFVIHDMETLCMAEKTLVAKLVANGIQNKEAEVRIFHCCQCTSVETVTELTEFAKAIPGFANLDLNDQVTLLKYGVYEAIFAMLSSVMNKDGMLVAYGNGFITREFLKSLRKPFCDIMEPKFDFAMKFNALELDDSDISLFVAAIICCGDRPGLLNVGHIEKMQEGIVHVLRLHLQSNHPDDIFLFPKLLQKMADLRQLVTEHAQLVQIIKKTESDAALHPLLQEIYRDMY

[2] = molecular target: T2, Peroxisome proliferator-activated receptor gamma (Homo sapiens) (UniProt P37231); assay: Competitive binding affinity to GST-tagged human PPARgamma LBD at 30 uM incubated for 1 to 6 hrs by TR-FRET assay relative to control
T2 sequence (whole entry): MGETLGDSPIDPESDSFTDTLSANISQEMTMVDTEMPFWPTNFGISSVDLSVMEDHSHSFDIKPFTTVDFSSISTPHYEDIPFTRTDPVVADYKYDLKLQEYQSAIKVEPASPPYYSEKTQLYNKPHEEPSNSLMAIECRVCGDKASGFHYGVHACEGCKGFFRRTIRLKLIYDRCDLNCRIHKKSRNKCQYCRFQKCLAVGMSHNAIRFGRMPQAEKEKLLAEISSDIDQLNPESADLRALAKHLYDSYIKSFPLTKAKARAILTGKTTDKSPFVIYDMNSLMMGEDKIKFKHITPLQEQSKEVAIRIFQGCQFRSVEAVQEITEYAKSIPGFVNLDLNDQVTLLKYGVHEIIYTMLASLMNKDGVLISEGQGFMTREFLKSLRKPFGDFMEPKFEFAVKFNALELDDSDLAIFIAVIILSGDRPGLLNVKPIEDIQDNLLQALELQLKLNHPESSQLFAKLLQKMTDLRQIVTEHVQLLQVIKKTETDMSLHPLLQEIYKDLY

Homo sapiens [3] = species: Homo sapiens; assay: Induction of adipogenesis in human MSC at 10 uM incubated for 5 days cotreated with IDX by ELISA; type: functional
[4] = molecular target: T3, Peroxisome proliferator-activated receptor delta (Homo sapiens) (UniProt Q03181); assay: Competitive binding affinity to GST-tagged human PPARdelta LBD at 30 uM incubated for 1 to 6 hrs by TR-FRET assay relative to control
T3 sequence (whole entry): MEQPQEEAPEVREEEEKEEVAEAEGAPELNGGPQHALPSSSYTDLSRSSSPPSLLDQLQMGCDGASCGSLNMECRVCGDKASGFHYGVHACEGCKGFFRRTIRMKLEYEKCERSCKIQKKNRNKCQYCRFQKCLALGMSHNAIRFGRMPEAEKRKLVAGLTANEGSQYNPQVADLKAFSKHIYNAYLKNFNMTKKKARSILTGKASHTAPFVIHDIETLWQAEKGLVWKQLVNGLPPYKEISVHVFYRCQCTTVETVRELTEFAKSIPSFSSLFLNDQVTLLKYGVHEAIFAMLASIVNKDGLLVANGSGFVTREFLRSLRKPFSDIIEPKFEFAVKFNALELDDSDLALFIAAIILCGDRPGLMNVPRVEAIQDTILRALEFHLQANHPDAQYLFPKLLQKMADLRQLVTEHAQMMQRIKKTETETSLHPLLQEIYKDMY

[5] = Induction of adipogenesis in human MSC incubated for 5 days cotreated with IDX by ELISA; type: functional
[6] = molecular target: T4, Peroxisome proliferator-activated receptor gamma (Homo sapiens, UniProt P37231); assay: (§1) Competitive binding affinity to GST-tagged human PPARgamma LBD incubated for 1 to 6 hrs by TR-FRET assay
T4 sequence (P37231 whole entry): T2 sequence (whole entry)

[7] = molecular target: T2, Peroxisome proliferator-activated receptor gamma (Homo sapiens); assay: Partial agonist at PPARgamma LBD (unknown origin) assessed as increase in recruitment of coactivator peptide C33 by TR-FRET assay relative to control
[8] = molecular target: T5, Peroxisome proliferator-activated receptor delta (Homo sapiens, UniProt Q03181); assay: Antagonist at PPARdelta LBD (unknown origin) assessed as […] in recruitment of coactivator peptide C33 cotreated with PPARdelta agonist GW501516 by TR-FRET assay
T5 sequence (Q03181 whole entry): T3 sequence (whole entry)

[9] = molecular target: T5, Peroxisome proliferator-activated receptor delta; assay: (§2) Competitive binding affinity to GST-tagged human PPARdelta LBD incubated for 1 to 6 hrs by TR-FRET assay
[10] = molecular target: T2, Peroxisome proliferator-activated receptor gamma (Homo sapiens); assay: as §1
[11] = molecular target: T5, Peroxisome proliferator-activated receptor delta; assay: Antagonist activity at PPARdelta LBD (unknown origin) assessed as increase in recruitment of SMRT ID2 corepressor peptide by TR-FRET assay
Homo sapiens [12] = species: Homo sapiens; assay: Induction of adipogenesis in human MSC assessed as increase in number of lipid droplets in differentiated adipocytes at 10 uM by Oil Red O staining based inverted microscopic method; type: functional, cell-based
[13] = molecular target: T3, Peroxisome proliferator-activated receptor delta (Homo sapiens); assay: as §2
Homo sapiens [14] = species: Homo sapiens; assay: Induction of adipogenesis in human MSC at 10 uM incubated for 5 days cotreated with IDX by ELISA relative to control; type: functional
[15] = molecular target: T2, Peroxisome proliferator-activated receptor gamma (Homo sapiens); assay: Partial agonist at PPARgamma LBD (unknown origin) assessed as inhibition in recruitment of coactivator peptide C33 cotreated with PPARgamma agonist troglitazone by TR-FRET assay
Homo sapiens [16] = species: Homo sapiens; assay: Induction of adipogenesis in human MSC assessed as increase in size of lipid droplets in differentiated adipocytes at 10 uM by Oil Red O staining based inverted microscopic method; type: functional, cell-based

Compound | Activity [1] | Activity [2] | Activity (Homo sapiens [3]) | Activity [4] | also measured
CNC(=O)[C@H]1[Se][C@@H](n2cnc3c(NCc4cccc(Cl)c4)nc(Cl)nc32)[C@H](O)[C@@H]1O | inactive | Active | Active | > 50% | –
CNC(=O)[C@H]1O[C@@H](n2cnc3c(NCc4cccc(I)c4)ncnc32)[C@H](O)[C@@H]1O | inactive | – | – | – | –
CNC(=O)[C@H]1[Se][C@@H](n2cnc3c(NCc4ccccc4Cl)ncnc32)[C@H](O)[C@@H]1O | inactive | – | – | – | –
CCc1ccc(CCOc2ccc(CC3SC(=O)NC3=O)cc2)nc1 (stereo unspecified) [PIOGLITAZONE] | – | – | – | – | pEC50 [5]: 6.30
CNC(=O)[C@H]1[Se][C@@H](n2cnc3c(NCc4cccc(I)c4)ncnc32)[C@H](O)[C@@H]1O | inactive | Active | Active | > 50% | –
CNC(=O)[C@H]1[Se][C@@H](n2cnc3c(NCc4cccc(F)c4)ncnc32)[C@H](O)[C@@H]1O | inactive | – | – | – | –
CNC(=O)[C@H]1[Se][C@@H](n2cnc3c(NCc4cccc(Br)c4)ncnc32)[C@H](O)[C@@H]1O | inactive | – | Active | > 50% | –
CNC(=O)[C@H]1O[C@@H](n2cnc3c(NCc4cccc(I)c4)nc(Cl)nc32)[C@H](O)[C@@H]1O [NAMODENOSON] | inactive | – | – | – | pEC50 [6]: 5.53; Activity [7]: < 50%; pEC50 [8]: 4.53; pEC50 [9]: 6.72; pEC50 [5]: 4.39
CNC(=O)[C@H]1S[C@@H](n2cnc3c(NCc4cccc(I)c4)ncnc32)[C@H](O)[C@@H]1O | inactive | – | – | – | –
CNC(=O)[C@H]1[Se][C@@H](n2cnc3c(NCc4cccc(F)c4)nc(Cl)nc32)[C@H](O)[C@@H]1O | inactive | – | Active | > 50% | –
CNC(=O)[C@H]1[Se][C@@H](n2cnc3c(NCc4cccc(I)c4)nc(Cl)nc32)[C@H](O)[C@@H]1O | inactive | > 50% | Active | > 50% | Activity [10]: Dose-dependent effect; pEC50 [6]: 5.27; pEC50 [11]: 5.14; Activity [7]: < 50%; pEC50 [8]: 5.28; Activity (Homo sapiens [12]): Active; Activity [13]: Dose-dependent effect; pEC50 [9]: 7.84; fold change (FC) (Homo sapiens [14]): 3.22; pEC50 [5]: 4.90; inhibition [15]: Active; Activity (Homo sapiens [16]): Active
CNC(=O)[C@H]1S[C@@H](n2cnc3c(NCc4cccc(I)c4)nc(Cl)nc32)[C@H](O)[C@@H]1O | inactive | – | – | – | pEC50 [6]: 5.33; pEC50 [11]: 4.78; Activity [7]: < 50%; pEC50 [8]: 4.97; pEC50 [9]: 7.39; pEC50 [5]: 4.68
CNC(=O)[C@H]1[Se][C@@H](n2cnc3c(NC4CCCC4)ncnc32)[C@H](O)[C@@H]1O | inactive | – | – | – | –
CNC(=O)[C@H]1[Se][C@@H](n2cnc3c(NCc4cccc(Br)c4)nc(Cl)nc32)[C@H](O)[C@@H]1O | inactive | Active | Active | > 50% | –
CNC(=O)[C@H]1[Se][C@@H](n2cnc3c(NCc4cccc5ccccc45)ncnc32)[C@H](O)[C@@H]1O | inactive | Active | Active | – | –
